{"source": "patent US20120058499A1", "about": "“Bioluminescent Detection of Protease Activity” (priority 2010, published 2012)", "key": {"USP2core": {"target": "T1, USP2core (Homo sapiens, UniProt O75604)", "T1 construct": "USP2core (the common catalytic core domain of the two isoforms of USP2, USP2a and USP2b)", "T1 sequence (O75604 267-599 limits assumed)": "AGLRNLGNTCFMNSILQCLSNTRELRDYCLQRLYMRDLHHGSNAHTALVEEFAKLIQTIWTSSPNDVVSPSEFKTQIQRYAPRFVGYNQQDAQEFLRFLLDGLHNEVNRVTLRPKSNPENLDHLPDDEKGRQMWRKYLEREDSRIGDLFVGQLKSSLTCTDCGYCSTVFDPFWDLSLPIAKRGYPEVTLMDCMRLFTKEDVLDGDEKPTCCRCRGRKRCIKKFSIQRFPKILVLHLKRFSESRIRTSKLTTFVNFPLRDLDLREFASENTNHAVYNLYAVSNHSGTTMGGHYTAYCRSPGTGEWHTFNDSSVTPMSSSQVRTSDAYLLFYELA", "test": "Isopeptidase cleavage of substrates (DUB-Glo luminescence / fluorescence), S/B", "type": "biochemical", "conditions": "USP2core 0.5 nM", "protocol": "(§1) The Ub-amino-luciferin substrate was compared to the Z-Arg-Leu-Arg-Gly-Gly (SEQ ID NO: 1)-amino-luciferin substrate (Promega DUB-Glo™ substrate) to determine the limit of detection of the activities of four different isopeptidases (UCHL3, USP2core, USP7, and USP8). For all enzymes, these two substrates were tested in parallel using the DUB-Glo™ assay system (Promega) according to the manufacturer's instructions. All enzymes were diluted into 50 mM HEPES, pH 7.5, 10 mM DTT, 0.1% Prionex (Sigma-Aldrich). For testing Z-Arg-Leu-Arg-Gly-Gly (SEQ ID NO: 1)-amino-luciferin, final isopeptidase concentrations were as follows: UCHL3 equal to approximately 0.35 to 50 nM; USP2core equal to approximately 10 to 500 nM, USP7 equal to approximately 0.1 to 50 nM, and USP8 equal to approximately 20 to 500 nM. For testing Ub-amino-luciferin, final isopeptidase concentrations were as follows: UCHL3 equal to approximately 0.05 to 50 pM; USP2core, USP7, and USP8 equal to approximately 0.5 to 500 pM. Reactions were assembled through addition of 50 μl of diluted enzyme and 50 μl of DUB-Glo™ reaction mixture supplemented with either Z-Arg-Leu-Arg-Gly-Gly (SEQ ID NO: 1)-amino-luciferin (final concentration of 20 μM) or Ub-amino-luciferin (final concentration of 100 nM). The signal in relative luminescence units (RLUs) was measured at 30 minutes from reaction assembly on an Envision multi-label plate reader (Perkin Elmer). The signal to background ratio (S/B) was calculated as (maximum signal−signal in absence of enzyme)/(signal in absence of enzyme).\n(§2) The Ub-amino-luciferin (Ub-LUC) substrate was compared to the Ub-AMC substrate (FIG. 3) and the Ub-Rhodamine110 (Ub-Rho) substrate (FIG. 4), to determine the limit of detection for the activities of four different isopeptidases (UCHL3, USP2core, USP7, and USP8). All enzymes were diluted into 50 mM Tris, pH 8.0, 5 mM DTT, 0.05% (w/v) CHAPS. Final isopeptidase concentrations were as follows: UCHL3 equal to approximately 2 pM to 40 pM; USP2core, USP7, and USP8 were equal to approximately 10 to 1000 nM. Either Ub-AMC or Ub-Rhodamine110 (final concentration equal to 250 nM) were diluted into 50 mM Tris, pH 8.0, 5 mM DTT, 0.05% (w/v) CHAPS. Reactions were assembled through the addition of 50 μl diluted isopeptidase to 50 μl of either Ub-AMC or Ub-Rhodamine110, and the signal in relative fluorescence units (RFUs) was measured at 30 minutes on an Envision multi-label plate reader (Perkin Elmer). For Ub-AMC, fluorescence was monitored with filters corresponding to excitation at 340 nm and emission at 460 nm. For Ub-Rhodamine110, fluorescence was monitored with filters corresponding to excitation at 485 nm and emission at 531 nm. The signal to background (S/B) was calculated as (maximum signal−signal in absence of enzyme)/(signal in absence of enzyme)."}, "USP8": {"target": "T2, USP8 (Homo sapiens, UniProt P40818)", "T2 sequence (P40818 1-1118)": "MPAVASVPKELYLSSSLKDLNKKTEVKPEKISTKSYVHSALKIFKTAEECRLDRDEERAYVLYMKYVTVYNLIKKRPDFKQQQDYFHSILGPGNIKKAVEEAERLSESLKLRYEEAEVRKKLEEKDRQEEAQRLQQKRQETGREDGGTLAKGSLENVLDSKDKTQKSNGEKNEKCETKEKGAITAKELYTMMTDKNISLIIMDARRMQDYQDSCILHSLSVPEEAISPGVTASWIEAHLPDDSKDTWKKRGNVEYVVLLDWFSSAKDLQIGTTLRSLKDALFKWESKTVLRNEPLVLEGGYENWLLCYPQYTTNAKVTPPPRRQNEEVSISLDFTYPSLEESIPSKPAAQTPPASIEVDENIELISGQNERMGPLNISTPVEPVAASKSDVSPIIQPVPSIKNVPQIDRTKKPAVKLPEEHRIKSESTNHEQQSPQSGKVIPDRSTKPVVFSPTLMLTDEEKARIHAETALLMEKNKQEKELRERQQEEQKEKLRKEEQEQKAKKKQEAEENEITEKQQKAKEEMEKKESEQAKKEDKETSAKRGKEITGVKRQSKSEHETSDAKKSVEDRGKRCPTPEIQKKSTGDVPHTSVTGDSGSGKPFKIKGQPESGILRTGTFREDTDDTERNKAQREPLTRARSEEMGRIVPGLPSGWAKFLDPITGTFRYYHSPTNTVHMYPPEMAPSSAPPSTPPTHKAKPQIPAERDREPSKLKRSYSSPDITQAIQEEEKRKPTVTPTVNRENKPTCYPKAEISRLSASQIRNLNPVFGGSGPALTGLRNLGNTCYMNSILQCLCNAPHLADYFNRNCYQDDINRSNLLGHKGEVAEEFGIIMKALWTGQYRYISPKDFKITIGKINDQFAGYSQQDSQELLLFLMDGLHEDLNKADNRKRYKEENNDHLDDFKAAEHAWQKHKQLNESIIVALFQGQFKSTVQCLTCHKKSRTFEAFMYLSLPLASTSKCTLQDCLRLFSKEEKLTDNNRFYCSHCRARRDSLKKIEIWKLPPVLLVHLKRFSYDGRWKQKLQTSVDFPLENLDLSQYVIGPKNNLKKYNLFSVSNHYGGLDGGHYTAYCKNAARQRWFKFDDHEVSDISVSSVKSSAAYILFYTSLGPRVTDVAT", "test": "Isopeptidase cleavage of substrates (DUB-Glo luminescence / fluorescence), S/B", "type": "biochemical", "conditions": "USP8 0.5 nM", "protocol": "as §1, §2"}}}
{"substance": "Ub(1-76)-aminoluciferin [Ub-LUC]", "values": [{"measurement": "S/B increase relative to both Ub-AMC and Ub-Rhodamine110", "setting": "USP2core", "value": "~100", "unit": "fold"}, {"measurement": "S/B increase relative to both Ub-AMC and Ub-Rhodamine110", "setting": "USP8", "value": "~100", "unit": "fold"}]}
